Data from PubChem BioAssay (NCI).
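All cell lines were grown in 96-well plates and treated with compound for 48 hours. GI50: concentration for 50% inhibition of growth. TGI is the concentration that stops growth completely.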

Legend:
Experiment in all cases: NCI tumour cell line growth inhibition, 48 h
[1] = system: SN12C renal
[2] = system: HOP-62 NSCLC
[3] = system: SNB-75 CNS
[4] = system: 786-0 renal
[5] = system: NCI-H226 lung
[6] = system: UO-31 renal
[7] = system: MDA-MB-435
[8] = system: DU-145 prostate
[9] = system: RPMI-8226 leukemia
[10] = system: SK-MEL-2 melanoma

Row | SMILES | GI50 [1] | TGI [1] | GI50 [2] | TGI [2] | GI50 [3] | TGI [3] | GI50 [4] | TGI [4] | GI50 [5] | TGI [5] | GI50 [6] | TGI [6] | GI50 [7] | TGI [7] | GI50 [8] | TGI [8] | GI50 [9] | TGI [9] | GI50 [10] | TGI [10]
1 | c1ccc(-c2[nH]ncc2-c2ccnc(-c3ccc(OCCn4ccnc4)cc3)c2)nc1 | > 25 µM | > 25 µM | > 25 µM | > 25 µM | > 25 µM | > 25 µM | > 25 µM | > 25 µM | > 18.7 µM | > 25 µM | 6.57 µM | > 25 µM | 24.5 µM | > 25 µM | > 25 µM | > 25 µM | > 20.6 µM | > 25 µM | > 25 µM | > 25 µM
2 | Cn1nccc1Nc1nccc(-c2ccn([C@H](CO)c3ccc(Cl)c(F)c3)c(=O)c2)n1 | 10 µM | > 100 µM | 37.8 µM | > 100 µM | 24.9 µM | > 100 µM | 31.4 µM | > 100 µM | 34.8 µM | > 100 µM | 24.7 µM | > 100 µM | 3.16 µM | > 100 µM | 27.7 µM | > 100 µM | 21.6 µM | 59.3 µM | 0.275 µM | 27.2 µM
3 | CC(Br)C(=O)NC(CO)C(=O)O (stereo not given) |  | > 100 µM |  | > 100 µM |  | > 100 µM |  | > 100 µM |  | > 100 µM |  | > 100 µM |  | > 100 µM |  | > 100 µM |  | > 100 µM |  | > 100 µM
4 | O=C(Nc1cccc(-n2cc(-c3ccncc3)c(-c3cc(O)cc(Cl)c3)n2)c1)c1ccc(N2CCOCC2)c(C(F)(F)F)c1 | 6.37 µM | > 100 µM | 3.59 µM | 58.2 µM | 0.722 µM | > 100 µM | 2.24 µM | 10.1 µM | 28.5 µM | > 100 µM | 1.41 µM | 15.5 µM | 2.05 µM | > 100 µM | 5.65 µM | > 100 µM | 0.398 µM | 2.31 µM | 2.34 µM | 13.2 µM
5 | O=C(Nc1ccc(N=C=S)cc1Cl)c1cc(Br)cc(Br)c1O |  | 24.1 µM |  | 84.4 µM |  | > 100 µM |  | 75.2 µM |  | 41.5 µM |  | > 100 µM |  | 71.4 µM |  | 39.4 µM |  |  |  | > 100 µM
6 | Nc1ncnc2c1N=C(c1ccc3c(c1)OCO3)CC(c1ccc(Cl)cc1)N2 (stereo not given) | 80.4 µM | > 100 µM | 16.6 µM | 42.6 µM | 5.22 µM | 38.3 µM | 21.7 µM | > 100 µM | 44.8 µM | > 100 µM | 7.47 µM | > 100 µM | 56.3 µM | > 100 µM | 16.8 µM | 33.3 µM | 1.5 µM | 8.33 µM |  | 
7 | Nc1ncc(Cc2ccc3c(c2)OCO3)c(N)n1 |  | > 100 µM |  | > 100 µM |  |  |  | > 100 µM |  | > 100 µM |  | > 100 µM |  | > 100 µM |  | > 100 µM |  | > 100 µM |  | 
8 | CNCc1cccc2c1OCCOCCOCCN(C)S(=O)(=O)c1ccc(cc1)-c1cnc(N)c(n1)C(=O)N2 | 1.48 µM | 3.41 µM | 1.77 µM | 4.04 µM | 0.218 µM | 17.6 µM | 0.446 µM | 1.99 µM | 2.76 µM | 6.92 µM | 1.21 µM | 2.91 µM | 1.28 µM | 2.69 µM | 1.27 µM | 15.2 µM | 4.39 µM | 31 µM | 1.42 µM | 4.27 µM
9 | Cn1c([N+](=O)[O-])cnc1C=C1C(=O)c2ccccc2C1=O | 3.83 µM | 16.1 µM | 10.7 µM | 29.5 µM | 2.99 µM | 39.6 µM | 5.18 µM | 28.3 µM | 13.1 µM | 47.4 µM | 3.83 µM | 16.2 µM | 2.67 µM | 11.7 µM | 6.45 µM | 19.6 µM | 3.36 µM | 13 µM | 2.46 µM | 6.24 µM
10 | COc1cc2c(cc1Nc1nc(N3CCc4ccccc43)c3cc[nH]c3n1)N(C(=O)CN(C)C)CC2 | 3.05 µM | 7.47 µM | 4.62 µM | 9.46 µM | 4.88 µM | 9.97 µM | 3 µM | 8.99 µM | 11.3 µM | 20.1 µM | 5.26 µM | 11.6 µM | 2.64 µM | 7.91 µM | 1.71 µM | 3.87 µM | 1.55 µM | 3.98 µM | 6.01 µM | 12.3 µM
11 | O=C(/C=C/C12c3ccccc3C(c3ccccc31)C1C(=O)NC(=O)C12)c1ccccn1 (stereo not given) | 1.48 µM | 3.44 µM | 1.75 µM | 4.15 µM | 1.67 µM | 4.34 µM | 1.74 µM | 4 µM | 2.98 µM | 11.7 µM | 1.32 µM | 2.74 µM | 1.77 µM | 5.15 µM | 1.02 µM | 2.21 µM | 1.22 µM | 4.3 µM | 1.76 µM | 3.95 µM
12 | CC1(C)OC[C@@H]([C@@]2(CO[Si](c3ccccc3)(c3ccccc3)C(C)(C)C)CC=CC(=O)O2)O1 | 5.39 µM | 35.9 µM | 31.5 µM | 60.9 µM |  |  | 8.96 µM | 32.8 µM | 5.54 µM | 24.1 µM | 12.2 µM | > 100 µM | 4.98 µM | 31.2 µM | 12.7 µM | > 100 µM | 3.55 µM | 71.9 µM | 6.23 µM | > 100 µM
13 | CCN(C)c1nc(N(C)CC)c2nc(N(C)CC)nc(N(C)CC)c2n1 |  | > 100 µM |  | > 100 µM |  | > 100 µM |  | > 100 µM |  |  |  | > 100 µM |  | > 100 µM |  | > 100 µM |  | > 100 µM |  | > 100 µM
14 | CCCCCOc1ccc(/C=N/Nc2cc(C)nc3ccc(Cl)cc23)cc1 | 1.71 µM | 3.22 µM | 1.62 µM | 3.29 µM | 1.63 µM | 3.22 µM | 1.78 µM | 3.32 µM | 1.64 µM | 3.68 µM | 1.56 µM | 2.93 µM | 1.75 µM | 3.21 µM | 1.88 µM | 3.7 µM |  |  | 1.7 µM | 3.17 µM
